In test [1] the target is T1, OsGA3ox1 (Oryza sativa, UniProt Q6AT12).
T1 construct: gene GA3OX1
Nature of the test: in vitro 3-oxidation, gas chromatography of products. In kind it is biochemical. To be noted: products GA4 and GA7.

In test [2] the target is T2, OsGA3ox1 (Oryza sativa, UniProt Q6AT12, F235Y).
T2 construct: gene GA3OX1
T2 sequence (Q6AT12 1-384 F235Y): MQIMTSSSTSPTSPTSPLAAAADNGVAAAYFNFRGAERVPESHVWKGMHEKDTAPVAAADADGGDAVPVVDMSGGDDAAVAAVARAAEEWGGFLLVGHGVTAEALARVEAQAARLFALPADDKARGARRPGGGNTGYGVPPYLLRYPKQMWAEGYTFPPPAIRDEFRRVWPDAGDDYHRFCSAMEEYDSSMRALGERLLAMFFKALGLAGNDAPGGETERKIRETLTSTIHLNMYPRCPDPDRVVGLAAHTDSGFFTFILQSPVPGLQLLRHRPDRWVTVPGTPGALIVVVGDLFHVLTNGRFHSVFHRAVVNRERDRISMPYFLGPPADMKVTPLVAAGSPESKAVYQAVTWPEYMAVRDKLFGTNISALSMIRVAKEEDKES
The description is as above. In kind it is biochemical. To be noted: products GA4 and GA7.

For a further test, the target named is T3, OsGA3ox2 (Oryza sativa, UniProt Q9FU53).
T3 construct: gene GA3OX2; crystallised without Fe(II)
Description: X-ray crystallography, […] A. It counts as binding. To be noted: Fe(II) omitted, active site.

The next test deals with T4, GID1 (Oryza sativa, UniProt Q6L545).
T4 construct: yeast two-hybrid fusions: GID1 bait in pGBKT7, SLR1 prey in pGADT7; with DELLA protein SLR1
T4 sequence (Q6L545 1-354): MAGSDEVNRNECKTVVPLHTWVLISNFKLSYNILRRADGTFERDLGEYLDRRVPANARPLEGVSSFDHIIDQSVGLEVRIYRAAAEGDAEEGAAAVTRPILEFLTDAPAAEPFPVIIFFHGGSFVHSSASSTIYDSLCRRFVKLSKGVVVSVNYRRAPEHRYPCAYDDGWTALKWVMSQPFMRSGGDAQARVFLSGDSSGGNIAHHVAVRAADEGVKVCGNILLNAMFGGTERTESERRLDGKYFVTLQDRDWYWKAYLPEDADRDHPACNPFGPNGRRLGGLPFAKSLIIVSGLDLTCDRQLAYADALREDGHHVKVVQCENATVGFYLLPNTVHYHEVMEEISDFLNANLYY
T4 sequence (Q7G7J6 1-625 partner): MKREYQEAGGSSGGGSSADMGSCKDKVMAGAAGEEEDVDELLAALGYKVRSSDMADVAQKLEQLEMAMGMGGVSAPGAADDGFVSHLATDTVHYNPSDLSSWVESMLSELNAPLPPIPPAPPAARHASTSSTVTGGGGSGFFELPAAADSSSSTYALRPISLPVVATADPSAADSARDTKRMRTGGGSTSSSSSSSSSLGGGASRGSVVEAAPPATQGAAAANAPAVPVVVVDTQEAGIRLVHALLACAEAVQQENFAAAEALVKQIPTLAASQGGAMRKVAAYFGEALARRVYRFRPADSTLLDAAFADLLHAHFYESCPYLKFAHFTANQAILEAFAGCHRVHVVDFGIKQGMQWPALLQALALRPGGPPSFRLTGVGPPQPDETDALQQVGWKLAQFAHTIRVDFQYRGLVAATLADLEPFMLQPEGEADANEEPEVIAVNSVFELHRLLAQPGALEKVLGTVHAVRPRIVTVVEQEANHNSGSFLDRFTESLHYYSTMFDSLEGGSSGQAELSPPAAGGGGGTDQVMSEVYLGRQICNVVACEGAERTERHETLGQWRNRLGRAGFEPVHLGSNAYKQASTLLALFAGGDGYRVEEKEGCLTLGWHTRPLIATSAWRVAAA
Nature of the test: yeast two-hybrid GID1-SLR1 interaction (-His growth). In kind it is cell-based. To be noted: GA-dependent interaction with SLR1; GA 1e-10 to 1e-5 M.

Structures are written as SMILES.

T3 sequence (Q9FU53 whole entry): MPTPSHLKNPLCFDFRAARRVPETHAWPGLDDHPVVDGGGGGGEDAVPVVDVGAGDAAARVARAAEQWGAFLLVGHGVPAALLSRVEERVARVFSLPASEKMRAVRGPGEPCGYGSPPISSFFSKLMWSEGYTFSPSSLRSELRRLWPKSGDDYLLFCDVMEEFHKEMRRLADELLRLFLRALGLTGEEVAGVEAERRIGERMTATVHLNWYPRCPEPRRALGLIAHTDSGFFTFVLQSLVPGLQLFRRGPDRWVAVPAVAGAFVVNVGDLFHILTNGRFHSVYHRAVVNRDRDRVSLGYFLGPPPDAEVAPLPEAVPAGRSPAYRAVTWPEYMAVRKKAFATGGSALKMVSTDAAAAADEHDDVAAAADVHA
T1 sequence (Q6AT12 whole entry): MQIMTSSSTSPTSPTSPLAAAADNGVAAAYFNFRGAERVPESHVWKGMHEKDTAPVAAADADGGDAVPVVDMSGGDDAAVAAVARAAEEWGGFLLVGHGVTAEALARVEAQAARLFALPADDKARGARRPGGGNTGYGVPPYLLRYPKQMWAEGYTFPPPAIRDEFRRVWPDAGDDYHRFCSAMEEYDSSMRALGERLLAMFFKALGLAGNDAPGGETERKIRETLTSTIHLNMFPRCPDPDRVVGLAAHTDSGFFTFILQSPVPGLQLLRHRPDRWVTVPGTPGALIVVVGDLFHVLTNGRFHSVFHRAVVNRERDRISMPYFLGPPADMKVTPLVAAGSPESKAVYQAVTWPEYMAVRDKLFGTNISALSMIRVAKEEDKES

On to `C=C1C[C@]23C[C@H]1CC[C@H]2[C@@]12CCC[C@@](C)(C(=O)O1)[C@H]2[C@@H]3C(=O)O` [GA9], for which the “in vitro 3-oxidation, gas chromatography of products” value at OsGA3ox1 [1] was “GA biosynthesis activities of recombinant OsGA3ox1 and OsGA3ox2 for GA9 as a substrate”; at OsGA3ox1 [2], “The productivity of GA7 was lower in F235Y-OsGA3ox1 than that in OsGA3ox1”. In addition, on OsGA3ox2 (complex with 2-oxoglutarate, 0.5 mM GA9, pH 7.0), the “X-ray crystallography, 1.9 A” value is “structure of the OsGA3ox2 complex with (co-) substrates; GA9 and 2-oxoglutarate (2OG)”.
In the case of `C=C1C[C@]23C[C@H]1CC[C@H]2[C@@]12CC[C@H](O)[C@@](C)(C(=O)O1)[C@H]2[C@@H]3C(=O)O` [GA4], at GID1, the “yeast two-hybrid GID1-SLR1 interaction (-His growth)” value is “GA7 showed the highest efficiency among all GA ligands, followed by GA4”.
On to `O=C(O)CCC(=O)C(=O)O` [2-oxoglutarate], for which the “X-ray crystallography, 1.9 A” value at OsGA3ox2 (complex with GA9, 10 mM 2-oxoglutarate, pH 7.0) is “structure of the OsGA3ox2 complex with (co-) substrates; GA9 and 2-oxoglutarate (2OG)”.
In the case of `C=C1C[C@]23C[C@H]1CC[C@H]2[C@@]12C=C[C@H](O)[C@@](C)(C(=O)O1)[C@H]2[C@@H]3C(=O)O` [GA7], the “yeast two-hybrid GID1-SLR1 interaction (-His growth)” value on GID1 was “GA7 showed the highest efficiency among all GA ligands, followed by GA4”.

For the origin of these results see publication PMC8770518, “Evolutionary alterations in gene expression and enzymatic activities of gibberellin 3-oxidase 1 in Oryza” (Communications Biology, 2022).
